According to patent US8030354B2, “Substituted biphenyl GPR40 modulators” (Amgen Inc., priority 2007, dated 2011):

Columns and labels:
[1] = target: T1, GPR40 (Homo sapiens, UniProt O14842); test: Cell-based aequorin assay (CHO cells stably expressing GPR40 and aequorin); set-up: expressed in transfected cells; host or cells: CHO cells stably transfected with GPR40 and aequorin; conditions: activation of human GPR40, CHO cells, 0.01% HSA
How it was run: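 CHO cells stably co-expressing GPR40 and aequorin, loaded with coelenterazine (1 ug/mL, 2 h, room temperature) in H/HBSS with 20 mM Hepes and 0.01% fatty acid-free HSA. Serially diluted compounds added; luminescence recorded over 20 s. EC50 from dose-response of maximum relative light units.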

[2] = target: T1, GPR40; test: Inositol phosphate accumulation assay (A9_GPR40 cells); type: cell-based; set-up: expressed in transfected cells; host or cells: CHO cells stably transfected with GPR40 and aequorin; conditions: inositol phosphate assay, A9_GPR40 cells, 1 hour; read-out: IP3 EC50
How it was run: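 A9 cells stably expressing GPR40 were labelled 16 h with 1 μCi/mL ^3H-inositol in inositol-free DMEM with dialysed FBS. Compounds in HBSS/10 mM LiCl with HSA were applied for 1 h at 37° C, then quenched with 20 mM formic acid. Accumulated [^3H] inositol phosphates were counted by SPA.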

T1 sequence (O14842 whole entry): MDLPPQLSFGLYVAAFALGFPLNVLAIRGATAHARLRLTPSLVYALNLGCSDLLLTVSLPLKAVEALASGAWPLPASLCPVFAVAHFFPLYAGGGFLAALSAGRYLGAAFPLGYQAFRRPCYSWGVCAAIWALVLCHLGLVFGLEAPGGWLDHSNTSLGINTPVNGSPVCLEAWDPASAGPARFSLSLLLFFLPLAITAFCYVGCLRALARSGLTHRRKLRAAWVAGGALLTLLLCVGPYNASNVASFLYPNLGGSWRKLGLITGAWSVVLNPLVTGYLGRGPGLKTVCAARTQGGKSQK

| SMILES | EC50 [1] | EC50 [2] |
| --- | --- | --- |
| CCCC(CC(=O)O)c1cccc(OCc2ccc(-c3cc(OC)ccc3F)c(C3=CCCCCC3)c2)c1 (single isomer, unassigned) [Example 67.6, (3R)-3-(3-(((2-(1-Cyclohepten-1-yl)-2′-fluoro-5′-(methyloxy)-1,1′-biphenyl-4-yl)methyl)oxy)phenyl)hexanoic acid or (3S)-3-(3-(((2-(1-cyclohepten-1-yl)-2′-fluoro-5′-(methyloxy)-1,1′-biphenyl-4-yl)methyl)oxy)phenyl)hexanoic acid] | 100 to 1000 nM | 10 to 100 nM |
| CCCC(CC(=O)O)c1cccc(OCc2ccc(-c3cc(OC)ccc3F)c(C3CCCCCC3)c2)c1 (single isomer, unassigned) [Example 67.7, (3R)-3-(3-(((2-Cycloheptyl-2′-fluoro-5′-(methyloxy)-1,1′-biphenyl-4-yl)methyl)oxy)phenyl)hexanoic acid or (3S)-3-(3-(((2-cycloheptyl-2′-fluoro-5′-(methyloxy)-1,1′-biphenyl-4-yl)methyl)oxy)phenyl)hexanoic acid] | 100 to 1000 nM | 10 to 100 nM |
| CCCC(CC(=O)O)c1cccc(OCc2ccc(-c3cc(OC)ccc3F)c(C3CCCCC3)c2)c1 (single isomer, unassigned) [Example 67.8, (3R)-3-(3-(((2-Cyclohexyl-2′-fluoro-5′-(methyloxy)-1,1′-biphenyl-4-yl)methyl)oxy)phenyl)hexanoic acid or (3S)-3-(3-(((2-cyclohexyl-2′-fluoro-5′-(methyloxy)-1,1′-biphenyl-4-yl)methyl)oxy)phenyl)hexanoic acid] | 100 to 1000 nM | 10 to 100 nM |
| CCC[C@H](CC(=O)O)c1cccc(OCc2ccc(-c3cc(OC)ccc3F)c(C3CCCC3(C)C)c2)c1 (single isomer, unassigned) [Example 67.11, (3R)-3-(3-(((2-(2,2-Dimethylcyclopentyl)-2′-fluoro-5′-(methyloxy)-1,1′-biphenyl-4-yl)methyl)oxy)phenyl)hexanoic acid or (3S)-3-(3-(((2-(2,2-dimethylcyclopentyl)-2′-fluoro-5′-(methyloxy)-1,1′-biphenyl-4-yl)methyl)oxy)phenyl)hexanoic acid] | 100 to 1000 nM | 10 to 100 nM |
| CCCC(CC(=O)O)c1cccc(OCc2ccc(-c3cccc(OC)c3)c(C3=CCCC3(C)C)c2)c1 (single isomer, unassigned) [Example 67.12, (3R)-3-(3-(((2-(5,5-Dimethyl-1-cyclopenten-1-yl)-3′-(methyloxy)-1,1′-biphenyl-4-yl)methyl)oxy)phenyl)hexanoic acid or (3S)-3-(3-(((2-(5,5-dimethyl-1-cyclopenten-1-yl)-3′-(methyloxy)-1,1′-biphenyl-4-yl)methyl)oxy)phenyl)hexanoic acid] | 100 to 1000 nM | 10 to 100 nM |
| CCC[C@H](CC(=O)O)c1cccc(OCc2ccc(-c3cc(OC)ccc3F)c(N3CCCCC3)c2)c1 (single isomer, unassigned) [Example 67.20, (3R)-3-(3-(((2′-Fluoro-5′-(methyloxy)-2-(1-piperidinyl)-1,1′-biphenyl-4-yl)methyl)oxy)phenyl)hexanoic acid or (3S)-3-(3-(((2′-fluoro-5′-(methyloxy)-2-(1-piperidinyl)-1,1′-biphenyl-4-yl)methyl)oxy)phenyl)hexanoic acid] | 100 to 1000 nM | 10 to 100 nM |
| CCC[C@H](CC(=O)O)c1cccc(OCc2cc(C3=CCCC3(C)C)c(-c3cc(OC)ccc3F)cc2F)c1 (single isomer, unassigned) [Example 67.21] | 100 to 1000 nM | 10 to 100 nM |
| C=CC(C)(C)[C@H](OC)c1cc(COc2cccc([C@H](CCC)CC(=O)O)c2)ccc1-c1cc(OC)ccc1F (single isomer, unassigned) [Example 67.24] | 100 to 1000 nM | 10 to 100 nM |

Now from value to compound:

| EC50 [1] | EC50 [2] | SMILES |
| --- | --- | --- |
| 100 to 1000 nM | < 10 nM | COc1ccc(F)c(-c2ccc(COc3cccc(C(CC(=O)O)CC4CC4)c3)cc2C2CCCCCC2)c1 (single isomer, unassigned) [Example 69.1, (3R)-3-(3-(((2-Cycloheptyl-2′-fluoro-5′-(methyloxy)-1,1′-biphenyl-4-yl)methyl)oxy)phenyl)-4-cyclopropylbutanoic acid or (3S)-3-(3-(((2-cycloheptyl-2′-fluoro-5′-(methyloxy)-1,1′-biphenyl-4-yl)methyl)oxy)phenyl)-4-cyclopropylbutanoic acid] |
| 100 to 1000 nM | 10 to 100 nM | COc1cccc(-c2ccc(COc3cccc(C(CC(=O)O)CC4CC4)c3)cc2C2=CCCC2(C)C)c1 (single isomer, unassigned) [Example 69.2, (3R)-4-Cyclopropyl-3-(3-(((2-(5,5-dimethyl-1-cyclopenten-1-yl)-3′-(methyloxy)-1,1′-biphenyl-4-yl)methyl)oxy)phenyl)butanoic acid or (3S)-4-cyclopropyl-3-(3-(((2-(5,5-dimethyl-1-cyclopenten-1-yl)-3′-(methyloxy)-1,1′-biphenyl-4-yl)methyl)oxy)phenyl)butanoic acid] |
| 100 to 1000 nM | 10 to 100 nM | COc1cccc(-c2ccc(COc3cccc(C(CC(=O)O)CC4CC4)c3)cc2C(C)(C)C)c1 (single isomer, unassigned) [Example 69.3, (3R)-4-Cyclopropyl-3-(3-(((2-(1,1-dimethylethyl)-3′-(methyloxy)-1,1′-biphenyl-4-yl)methyl)oxy)phenyl)butanoic acid or (3S)-4-cyclopropyl-3-(3-(((2-(1,1-dimethylethyl)-3′-(methyloxy)-1,1′-biphenyl-4-yl)methyl)oxy)phenyl)butanoic acid] |
| 100 to 1000 nM | 10 to 100 nM | COc1ccc(F)c(-c2ccc(COc3cccc(C(CC(=O)O)CC4CC4)c3)cc2C(C)(C)C)c1 (single isomer, unassigned) [Example 69.4, (3R)-4-Cyclopropyl-3-(3-(((2-(1,1-dimethylethyl)-2′-fluoro-5′-(methyloxy)-1,1′-biphenyl-4-yl)methyl)oxy)phenyl)butanoic acid or (3S)-4-cyclopropyl-3-(3-(((2-(1,1-dimethylethyl)-2′-fluoro-5′-(methyloxy)-1,1′-biphenyl-4-yl)methyl)oxy)phenyl)butanoic acid] |
| 100 to 1000 nM | 10 to 100 nM | COc1ccc(F)c(-c2ccc(COc3cccc(C(CC(=O)O)CC4CC4)c3)cc2C2=CCCC2(C)C)c1 (single isomer, unassigned) [Example 69.6, (3R)-4-Cyclopropyl-3-(3-(((2-(5,5-dimethyl-1-cyclopenten-1-yl)-2′-fluoro-5′-(methyloxy)-1,1′-biphenyl-4-yl)methyl)oxy)phenyl)butanoic acid or (3S)-4-cyclopropyl-3-(3-(((2-(5,5-dimethyl-1-cyclopenten-1-yl)-2′-fluoro-5′-(methyloxy)-1,1′-biphenyl-4-yl)methyl)oxy)phenyl)butanoic acid] |
| 10 to 100 nM | < 10 nM | COc1cccc(-c2ccc(COc3cccc(C(CC(=O)O)CC4CC4)c3)cc2C2CCCC2(C)C)c1 (single isomer, unassigned) [Example 69.10] |
| 100 to 1000 nM | 10 to 100 nM | COc1cccc(-c2ccc(COc3cccc(C(CC(=O)O)CC4CC4)c3)cc2C2CCCCCC2)c1 (single isomer, unassigned) [Example 69.11, (3R)-3-(3-(((2-Cycloheptyl-3′-(methyloxy)-1,1′-biphenyl-4-yl)methyl)oxy)phenyl)-4-cyclopropylbutanoic acid or (3S)-3-(3-(((2-cycloheptyl-3′-(methyloxy)-1,1′-biphenyl-4-yl)methyl)oxy)phenyl)-4-cyclopropylbutanoic acid] |
| 100 to 1000 nM | < 10 nM | COc1ccc(F)c(-c2ccc(COc3cccc([C@@H](CC(=O)O)CC4CC4)c3)cc2C(C)C(C)C)c1 (single isomer, unassigned) [Example 69.12, (3R)-4-Cyclopropyl-3-(3-(((2-(1,2-dimethylpropyl)-2′-fluoro-5′-(methyloxy)-1,1′-biphenyl-4-yl)methyl)oxy)phenyl)butanoic acid or (3S)-4-cyclopropyl-3-(3-(((2-(1,2-dimethylpropyl)-2′-fluoro-5′-(methyloxy)-1,1′-biphenyl-4-yl)methyl)oxy)phenyl)butanoic acid] |
| 100 to 1000 nM | < 10 nM | COc1ccc(F)c(-c2ccc(COc3cccc(C(CC(=O)O)CC4CC4)c3)cc2C2CCCCCCC2)c1 (single isomer, unassigned) [Example 69.13, (3R)-3-(3-(((2-Cyclooctyl-2′-fluoro-5′-(methyloxy)-1,1′-biphenyl-4-yl)methyl)oxy)phenyl)-4-cyclopropylbutanoic acid or (3S)-3-(3-(((2-cyclooctyl-2′-fluoro-5′-(methyloxy)-1,1′-biphenyl-4-yl)methyl)oxy)phenyl)-4-cyclopropylbutanoic acid] |
| 100 to 1000 nM | 100 to 1000 nM | COc1ccc(F)c(-c2ccc(COc3cccc([C@@H](CC(=O)O)CC4CC4)c3)cc2C(O)C(C)(C)C)c1 (single isomer, unassigned) [Example 69.14, (3R)-4-Cyclopropyl-3-(3-(((2′-fluoro-2-(1-hydroxy-2,2-dimethylpropyl)-5′-(methyloxy)-1,1′-biphenyl-4-yl)methyl)oxy)phenyl)butanoic acid or (3S)-4-cyclopropyl-3-(3-(((2′-fluoro-2-(1-hydroxy-2,2-dimethylpropyl)-5′-(methyloxy)-1,1′-biphenyl-4-yl)methyl)oxy)phenyl)butanoic acid] |
